The values that follow come from paper doi:10.1101/2025.09.30.679521v1, “Crystallographic characterisation and development of bi-substrate inhibitors of coronavirus nsp14 methyltransferase” (biorxiv, 2025).

One series is described as follows: in vitro. Details: mouse liver microsomal stability. As to conditions: liver microsomes; Mouse liver microsomes; read-out: Mouse liver Mic T1/2 / min. The source says:
We initiated our structure-activity relationship (SAR) studies by investigating various replacements for the benzothiazole group, compounds 2-17, Table 1. […] Relatively flat SAR is observed across this subset of compounds, indeed a 6,5 or 6,6 aromatic system with the appropriate connectivity as compound 1 display relatively similar potencies. […] In general, the mouse microsomal clearance was rather low for this set of molecules, with no significant instabilities introduced, with perhaps the exception of compound 4. With no significant advantages in either potency or mouse microsomal clearance (Table S2) identified for this subset, the benzothiazole was taken forward into subsequent SAR studies. Table 2. Enzymatic inhibition against SARS-CoV-2 nsp14, human RNMT, CHI-logD and mouse microsomal stability.
For orientation: Liver microsomes are vesicles of endoplasmic reticulum, rich in cytochrome P450 enzymes.

The target in the next series is T1, SARS-CoV-2 nsp14 (Severe acute respiratory syndrome coronavirus 2, UniProt P0DTD1).
T1 construct: gene rep
Nature of the series: RapidFire MS methyltransferase assay. Type of series: biochemical. The text has this:
RapidFire MS methyltransferase assay on SARS-CoV-2 nsp14

Series [1] is described as follows: physchem.
The target of a further series is HCoV-NL63 nsp14 (Human coronavirus NL63, UniProt P0C6X5). Nature of the series: RapidFire MS methyltransferase assay. It counts as biochemical. The text has this:
RapidFire MS methyltransferase assay on HCoV-NL63 nsp14

The target in the next series is human RNMT (Homo sapiens, UniProt O43148). In words: RNMT methyltransferase assay (Gray et al.). It counts as biochemical. The source says:
RNMT methyltransferase assay (Gray et al.) on human RNMT

The next series deals with T2, HCoV-229E nsp14 (Human coronavirus 229E, UniProt P0C6X1).
T2 construct: gene rep
T2 sequence (P0C6X1 5593-6110): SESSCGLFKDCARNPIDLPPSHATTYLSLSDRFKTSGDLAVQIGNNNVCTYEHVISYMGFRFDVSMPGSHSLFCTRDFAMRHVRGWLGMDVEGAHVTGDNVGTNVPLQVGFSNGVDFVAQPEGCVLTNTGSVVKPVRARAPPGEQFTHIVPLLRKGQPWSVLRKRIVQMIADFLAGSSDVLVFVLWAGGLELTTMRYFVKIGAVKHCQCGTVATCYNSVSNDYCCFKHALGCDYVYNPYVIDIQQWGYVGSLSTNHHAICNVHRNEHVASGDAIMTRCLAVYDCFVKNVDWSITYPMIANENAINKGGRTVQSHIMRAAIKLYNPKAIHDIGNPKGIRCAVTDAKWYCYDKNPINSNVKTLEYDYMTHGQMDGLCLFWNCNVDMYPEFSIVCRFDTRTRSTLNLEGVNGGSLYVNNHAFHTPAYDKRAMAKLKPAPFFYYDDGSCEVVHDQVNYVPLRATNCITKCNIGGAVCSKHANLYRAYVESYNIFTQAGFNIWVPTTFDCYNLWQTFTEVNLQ
Nature of the series: RapidFire MS methyltransferase assay. It counts as biochemical. The text has this: RapidFire MS methyltransferase assay on HCoV-229E nsp14

A short description of series [2]: physchem. This is another data set of the same source.

Like-named read-outs stand apart in the source and are kept apart here.

Sequence of HCoV-NL63 nsp14 (P0C6X5 5568-6085): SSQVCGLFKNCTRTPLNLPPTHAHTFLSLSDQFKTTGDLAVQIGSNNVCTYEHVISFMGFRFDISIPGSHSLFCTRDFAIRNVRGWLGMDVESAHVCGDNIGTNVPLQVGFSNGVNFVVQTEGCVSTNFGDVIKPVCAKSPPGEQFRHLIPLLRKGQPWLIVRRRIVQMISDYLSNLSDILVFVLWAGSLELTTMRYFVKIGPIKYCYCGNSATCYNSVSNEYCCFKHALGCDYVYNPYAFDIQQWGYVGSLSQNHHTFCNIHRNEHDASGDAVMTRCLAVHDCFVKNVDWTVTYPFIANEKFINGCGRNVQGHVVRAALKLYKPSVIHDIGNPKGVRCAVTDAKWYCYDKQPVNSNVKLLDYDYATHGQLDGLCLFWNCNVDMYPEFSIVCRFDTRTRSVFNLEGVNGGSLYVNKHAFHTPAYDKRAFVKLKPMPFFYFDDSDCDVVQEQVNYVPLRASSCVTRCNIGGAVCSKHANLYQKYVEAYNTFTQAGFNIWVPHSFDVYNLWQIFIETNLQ
Sequence of human RNMT (O43148 whole entry): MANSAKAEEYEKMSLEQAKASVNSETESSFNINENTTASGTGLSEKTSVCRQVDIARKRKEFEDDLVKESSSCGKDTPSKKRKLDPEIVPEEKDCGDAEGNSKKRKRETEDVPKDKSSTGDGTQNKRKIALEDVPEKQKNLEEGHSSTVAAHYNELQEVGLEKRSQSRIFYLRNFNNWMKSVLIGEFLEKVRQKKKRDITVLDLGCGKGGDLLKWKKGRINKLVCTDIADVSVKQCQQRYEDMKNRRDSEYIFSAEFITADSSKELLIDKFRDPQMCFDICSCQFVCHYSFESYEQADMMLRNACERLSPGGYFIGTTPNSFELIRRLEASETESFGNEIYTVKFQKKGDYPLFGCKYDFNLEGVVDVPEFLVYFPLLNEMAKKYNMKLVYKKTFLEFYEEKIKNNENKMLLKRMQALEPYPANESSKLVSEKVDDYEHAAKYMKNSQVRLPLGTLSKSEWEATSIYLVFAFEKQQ

In the case of `Nc1ncnn2c([C@@H]3O[C@H](CSc4nc5ccccc5s4)[C@@H](O)[C@H]3O)ccc12` [compound 35, (2S,3R,4S,5S)-2-(4-Aminopyrrolo[2,1-f][1,2,4]triazin-7-yl)-5-(1,3-benzothiazol-2-ylsulfanylmethyl)tetrahydrofuran-3,4-diol], in “in vitro”, the half-life is greater than 30 min.

As to `Nc1ncnc2c1ccn2[C@@H]1O[C@H](CSc2nc3ccccc3s2)[C@@H](O)[C@H]1O` [compound 27], the IC50 (usually the midpoint of a concentration-inhibition curve) at SARS-CoV-2 nsp14 (read-out: IC50) was 55 ± 20 nM; at HCoV-NL63 nsp14 (read-out: IC50), 39 ± 6 nM; against human RNMT, greater than 100000 nM; at HCoV-229E nsp14 (read-out: IC50), 41 ± 4 nM. In “in vitro”, the half-life is greater than 30 min. In addition, the logD (commonly lipophilicity at a set pH, counting ionised and neutral species) in “physchem [1]” came out at 1.6.

`CCc1cn([C@@H]2O[C@H](CSc3nc4ccccc4s3)[C@@H](O)[C@H]2O)c2ncnc(N)c12` [compound 31]: the IC50 at SARS-CoV-2 nsp14 (read-out: IC50) is 250 ± 200 nM; on HCoV-NL63 nsp14 (read-out: IC50) it was 52 ± 9 nM; against human RNMT it was greater than 100000 nM; on HCoV-229E nsp14 (read-out: IC50) it was 120 ± 10 nM. Besides, the logD in “physchem [1]” turned out to be 2.1.

Regarding `Nc1ncnc2c1ncn2[C@@H]1O[C@H](CSc2cccn3cncc23)[C@@H](O)[C@H]1O` [compound 12], the IC50 worked out at 15000 ± 12000 nM at SARS-CoV-2 nsp14 (read-out: IC50), 9500 ± 2300 nM at HCoV-NL63 nsp14 (read-out: IC50), 9300 nM against human RNMT and 790 ± 60 nM at HCoV-229E nsp14 (read-out: IC50). Further, the pH-dependent lipophilicity (logD) in the series “physchem [2]” came out at 0.3.

Consider `Nc1ncnn2c([C@@H]3O[C@H](CCc4nc5ccccc5s4)[C@@H](O)[C@H]3O)ccc12` [compound 39, (2S,3R,4S,5R)-2-(4-Aminopyrrolo[2,1-f][1,2,4]triazin-7-yl)-5-[2-(1,3-benzothiazol-2-yl)ethyl]tetrahydrofuran-3,4-diol], for which the half-life in the series “in vitro” was greater than 30 min.

As to `Nc1ncnc2c1ncn2[C@@H]1O[C@H](CSc2nc3ccccc3[nH]2)[C@@H](O)[C@H]1O` [compound 15], the IC50 on SARS-CoV-2 nsp14 (read-out: IC50) was 590 ± 110 nM; on HCoV-NL63 nsp14 (read-out: IC50) it was 480 ± 100 nM; against human RNMT, greater than 100000 nM; at HCoV-229E nsp14 (read-out: IC50) it was 860 ± 200 nM. Further, the logD in “physchem [1]” was 0.3.

On to `CCNC(=O)NCCSC[C@H]1O[C@@H](n2cnc3c(N)ncnc32)[C@H](O)[C@@H]1O` [compound 5], for which the IC50 was 1900 ± 300 nM on SARS-CoV-2 nsp14 (read-out: IC50) and greater than 100000 nM against human RNMT. Besides, in “in vitro”, the half-life is greater than 30 min. In “physchem [2]”, this compound registered a logD of -0.2.

As for `Nc1ncnc2c1ncn2[C@@H]1O[C@H](CSc2nc3ccccc3o2)[C@@H](O)[C@H]1O` [compound 14], the IC50 on SARS-CoV-2 nsp14 (read-out: IC50) was 670 ± 20 nM; on HCoV-NL63 nsp14 (read-out: IC50) it was 660 ± 400 nM; at human RNMT, greater than 100000 nM; at HCoV-229E nsp14 (read-out: IC50), 950 ± 20 nM. In the series “physchem [1]”, this compound yielded a logD of 1.

Regarding `Nc1ncnc2c1ncn2[C@@H]1O[C@H](CSc2nc3ccccc3o2)[C@@H](O)[C@H]1O` [compound 14, (2R,3R,4S,5S)-2-(6-Amino-9H-purin-9-yl)-5-((benzo[d]oxazol-2-ylthio)methyl) tetrahydrofuran-3,4-diol], in the series “in vitro”, the half-life was greater than 30 min.

In the case of `Nc1ncnn2c([C@@H]3O[C@H](CSc4nc5ccccc5s4)[C@@H](O)[C@H]3O)ccc12` [compound 35], the 50% inhibitory concentration (IC50) on SARS-CoV-2 nsp14 (read-out: IC50) turned out to be 370 ± 130 nM; at HCoV-NL63 nsp14 (read-out: IC50), 100 ± 20 nM; at HCoV-229E nsp14 (read-out: IC50) it was 190 ± 40 nM. Moreover, the logD in the series “physchem [1]” is 1.5.

For `Cc1ccc2nc(SC[C@H]3O[C@@H](c4ccc5c(N)ncnn45)[C@H](O)[C@@H]3O)sc2c1` [compound 36], at SARS-CoV-2 nsp14 (read-out: IC50), the IC50 was 340 ± 140 nM. In addition, the logD in the series “physchem [1]” was determined as 1.9.

With `Nc1ncnc2c1ncn2[C@@H]1O[C@H](CSc2nccs2)[C@@H](O)[C@H]1O` [compound 11, (2R,3R,4S,5S)-2-(6-Aminopurin-9-yl)-5-(thiazol-2-ylsulfanylmethyl) tetrahydrofuran-3,4-diol], the half-life in the series “in vitro” is greater than 30 min.

`Nc1ncnc2c1ncn2[C@@H]1O[C@H](CSc2ccn3cncc3c2)[C@@H](O)[C@H]1O` [compound 17]: the concentration for half-maximal inhibition (IC50) is 6900 ± 4600 nM on SARS-CoV-2 nsp14 (read-out: IC50), 6400 ± 1600 nM at HCoV-NL63 nsp14 (read-out: IC50), 31100 nM against human RNMT and 1100 ± 150 nM at HCoV-229E nsp14 (read-out: IC50). Also, the logD in “physchem [1]” worked out at 0.1.

On to `Nc1ncnc2c1ncn2[C@@H]1O[C@H](CSc2ccn3cncc3c2)[C@@H](O)[C@H]1O` [compound 17, (2R,3R,4S,5S)-2-(6-Aminopurin-9-yl)-5-(imidazo[1,5-a]pyridine-7-ylsulfanylmethyl) tetrahydrofuran-3,4-diol], for which the half-life in the series “in vitro” turned out to be 11.1 min.

For `Nc1ncnc2c1ncn2[C@@H]1O[C@H](CSc2nc3ccccc3[nH]2)[C@@H](O)[C@H]1O` [compound 15, (2S,3S,4R,5R)-2-(((1H-Benzo[d]imidazol-2-yl)thio)methyl)-5-(6-amino-9H-purin-9-yl) tetrahydrofuran-3,4-diol], in the series “in vitro”, the half-life was greater than 30 min.

As to `Nc1ncnn2c([C@@H]3O[C@H](CSc4ccc5ccccc5c4)[C@@H](O)[C@H]3O)ccc12` [compound 37, (2S,3R,4S,5S)-2-(4-Aminopyrrolo[2,1-f][1,2,4]triazin-7-yl)-5-(2-naphthylsulfanylmethyl) tetrahydrofuran-3,4-diol], in “in vitro”, the half-life amounted to 13.6 min.

Take `C#Cc1cn([C@@H]2O[C@H](CSc3nc4ccccc4s3)[C@@H](O)[C@H]2O)c2ncnc(N)c12` [compound 30]: the IC50 against SARS-CoV-2 nsp14 was 54 ± 10 nM; on HCoV-NL63 nsp14, 29 ± 9 nM; on human RNMT, greater than 100000 nM; against HCoV-229E nsp14, 33 ± 2 nM. For the same compound, in “in vitro”, the half-life came out at 10.1 min. In “physchem [1]”, this compound gave a logD of 2.

On to `Nc1ncnn2c([C@@H]3O[C@H](CSc4ccc5ccccc5n4)[C@@H](O)[C@H]3O)ccc12` [compound 38], for which the IC50 at SARS-CoV-2 nsp14 (read-out: IC50) came to 680 ± 110 nM. For the same compound, the logD in “physchem [1]” was determined as 1.7.

With `N#Cc1cn([C@@H]2O[C@H](CSc3nc4ccccc4s3)[C@@H](O)[C@H]2O)c2ncnc(N)c12` [compound 29], the half-maximal inhibitory concentration (IC50) on SARS-CoV-2 nsp14 is 170 ± 20 nM; at HCoV-NL63 nsp14, 73 ± 26 nM; against human RNMT it was greater than 100000 nM; at HCoV-229E nsp14 it was 100 ± 7 nM. Further, the half-life in the series “in vitro” was found to be 12.1 min. This compound displayed a logD in the series “physchem [1]” of 1.8.

In the case of `CNc1ncnc2c1ncn2[C@@H]1O[C@H](CSc2nc3ccccc3s2)[C@@H](O)[C@H]1O` [compound 18, (2S,3S,4R,5R)-2-(1,3-Benzothiazol-2-ylsulfanylmethyl)-5-[6-(methylamino)purin-9-yl]tetrahydrofuran-3,4-diol], the half-life in the series “in vitro” is 19.7 min.

Regarding `Nc1ncnn2c([C@@H]3O[C@H](CCc4nc5ccccc5s4)[C@@H](O)[C@H]3O)ccc12` [compound 39], the concentration for half-maximal inhibition (IC50) at SARS-CoV-2 nsp14 (read-out: IC50) stood at 500 ± 400 nM; on HCoV-NL63 nsp14 (read-out: IC50), 760 ± 300 nM; at HCoV-229E nsp14 (read-out: IC50), 2300 ± 50 nM. Further, the log distribution coefficient (logD) in “physchem [1]” came to 1.3.

Regarding `Nc1ncnc2c1ncn2[C@@H]1O[C@H](CSc2nccs2)[C@@H](O)[C@H]1O` [compound 11], the IC50 at SARS-CoV-2 nsp14 (read-out: IC50) was greater than 100000 nM; on HCoV-NL63 nsp14 (read-out: IC50) it was greater than 50000 nM; against human RNMT it was greater than 100000 nM; on HCoV-229E nsp14 (read-out: IC50), greater than 50000 nM. Besides, the logD in “physchem [2]” came to 0.3.

As for `Nc1ncnn2c([C@@H]3O[C@H](CSc4ccc5ccccc5c4)[C@@H](O)[C@H]3O)ccc12` [compound 37], at SARS-CoV-2 nsp14 (read-out: IC50), the 50% inhibitory concentration (IC50) worked out at 200 ± 70 nM. In the series “physchem [1]”, this compound displayed a logD of 2.2.

With `Cc1ccc2nc(SC[C@H]3O[C@@H](c4ccc5c(N)ncnn45)[C@H](O)[C@@H]3O)sc2c1` [compound 36, (2S,3R,4S,5S)-2-(4-Aminopyrrolo[2,1-f][1,2,4]triazin-7-yl)-5-[(6-methyl-1,3-benzothiazol-2-yl)sulfanylmethyl]tetrahydrofuran-3,4-diol], the half-life in the series “in vitro” came out at 18 min.

`CCc1cn([C@@H]2O[C@H](CSc3nc4ccccc4s3)[C@@H](O)[C@H]2O)c2ncnc(N)c12` [compound 31, (2R,3R,4S,5S)-2-(4-amino-5-ethyl-pyrrolo[2,3-d]pyrimidin-7-yl) -5-(1,3-benzothiazol-2-ylsulfanylmethyl)tetrahydrofuran-3,4-diol]: in the series “in vitro”, the half-life was 3.9 min.

For the compound `Cc1ccc2sc(SC[C@H]3O[C@@H](n4cnc5c(N)ncnc54)[C@H](O)[C@@H]3O)nc2c1` [compound 3], the 50% inhibitory concentration (IC50) against SARS-CoV-2 nsp14 was 1200 ± 150 nM; against human RNMT, greater than 100000 nM. Further, the half-life in “in vitro” is 25.7 min. This compound yielded a pH-dependent lipophilicity (logD) in “physchem [2]” of 1.6.

For the compound `Nc1ncnc2c1ccn2[C@@H]1C[C@H](CSc2nc3ccccc3s2)[C@@H](O)[C@H]1O` [compound 28], the half-life in the series “in vitro” is greater than 30 min. The compound further registered a logD in the series “physchem [1]” of 1.8.

Regarding `Nc1ncnn2c([C@@H]3O[C@H](CSc4ccc5ccccc5n4)[C@@H](O)[C@H]3O)ccc12` [compound 38, (2S,3R,4S,5S)-2-(4-Aminopyrrolo[2,1-f][1,2,4]triazin-7-yl)-5-(2-quinolylsulfanylmethyl) tetrahydrofuran-3,4-diol], in “in vitro”, the half-life was greater than 30 min.

For the compound `Nc1ncnc2c1ncn2[C@@H]1O[C@H](CSc2cccc3cn[nH]c23)[C@@H](O)[C@H]1O` [compound 16], the IC50 against SARS-CoV-2 nsp14 (SAM and RNA cap substrate at KM (SAM 1.0 µM), unreliable (footnote: one IC50 measured > 100 µM)) is 79000 ± 18000 nM; on human RNMT it was greater than 100000 nM. In addition, the logD in “physchem [1]” amounted to 0.7.
